Legend:
weeds = conditions: as a post emergence treatment, applied alone; previous studies; cited from earlier work
Palmer Amaranth [1] = test: Example 1: post emergence treatments on field plots with Palmer Amaranth; type: in vivo; conditions: COC 1% v/v
Text: In order to determine the efficacy of combinations of pyroxasulfone and lactofen, numerous treatments were applied to plots in an area with abundant Palmer Amaranth growth. Treatments were applied to Palmer that were between 1 and 2 inches tall with a water volume of 20 gallons per acre applied at 35 PSI with a ground speed of 3 MPH. Treatments were repeated 10 days after the first application on another set of plots with Palmer 3 to 12 inches tall with a water volume of 20 gallons per acre applied at 35 PSI with a ground speed of 3 MPH.
The number of living Palmer Amaranth plants was evaluated at 7, 18, 24, and 38 days following the first treatment and 8, 14, and 28 days following the second treatment. Effect of Pyroxasulfone and Lactofen Treatments on Palmer Amaranth.”

Palmer Amaranth [2] = test: Example 2: post emergence treatments on soybean plots, control of Palmer Amaranth; type: in vivo; set-up: scale not given here
Text: (§1) In order to determine the efficacy of combinations of pyroxasulfone and lactofen, numerous treatments were applied to plots in an area with abundant Palmer Amaranth and Ivyleaf Morning Glory growth. Soybeans were planted approximately 22 days before treatment. Treatments were applied with a backpack sprayer with a size 6 nozzle at a pace of 3 miles per hour during dry conditions. Each treatment was done in triplicate. Treatments were applied with a water volume of 20 gallons per acre applied at 40 PSI with a ground speed of 3 MPH. At the time of treatment, Palmer Amaranth plants were approximately 2 to 6 inches tall, and Ivyleaf Morning Glory was approximately 3 to 6 inches tall. Effect of Pyroxasulfone and Lactofen Treatments on Palmer Amaranth” and “Table 3. Effect of Pyroxasulfone and Lactofen Treatments on Ivyleaf Morning Glory.”

Ivyleaf Morning Glory = test: Example 2: post emergence treatments on soybean plots, control of Ivyleaf Morning Glory; type: in vivo; set-up: scale not given here
Text: as §1

Soybeans = test: Example 2: phytotoxicity of the treatments on soybeans; conditions: soybean, in vivo, 28 days after treatment
Text: as §1
Applicants also evaluated the phototoxicity of the treatments on soybeans. […] Effect of Pyroxasulfone and Lactofen Treatments on Soybeans,” there were no phytotoxic effects 28 days following treatments.

[3] = plot 2, Pyroxasulfone 0.213 lb ai/a

## Cn1nc(C(F)(F)F)c(CS(=O)(=O)C2=NOC(C)(C)C2)c1OC(F)F [Pyroxasulfone, 5-(difluoromethoxy)-1-methyl-3-(trifluoromethyl)pyrazol-4-ylmethyl 4,5-dihydro-5,5-dimethyl-1,2-oxazol-3-yl sulfone]
weeds
  post emergence activity: poor activity
Palmer Amaranth [1]; [3]
  Palmer Amaranth (% Control) 7 DAT: 66.9%
  Palmer Amaranth (% Control) 8/18 DAT: 85.0%
  Palmer Amaranth (% Control) 14/24 DAT: 45.0%
  Palmer Amaranth (% Control) 28/38 DAT: 61.7%

## CCOC(=O)C(C)OC(=O)c1cc(Oc2ccc(C(F)(F)F)cc2Cl)ccc1[N+](=O)[O-] (racemic) [Lactofen, ethyl O-[5-(2-chloro-α,α,α-trifluoro-p-tolyloxy)-2-nitrobenzoyl]-DL-lactate]
Palmer Amaranth [2]; plot 8, Lactofen 8 fl oz/a
  Effect on Palmer Amaranth 6 DAT: 86.7
  Effect on Palmer Amaranth 14 DAT: 65.0
  Effect on Palmer Amaranth 28 DAT: 46.7
Palmer Amaranth [2]; plot 9, Lactofen 10.0 fl oz/a
  Effect on Palmer Amaranth 6 DAT: 84.7
  Effect on Palmer Amaranth 14 DAT: 68.3
  Effect on Palmer Amaranth 28 DAT: 46.7
Palmer Amaranth [2]; plot 10, Lactofen 12.5 fl oz/a
  Effect on Palmer Amaranth 6 DAT: 85.0
  Effect on Palmer Amaranth 14 DAT: 71.7
  Effect on Palmer Amaranth 28 DAT: 43.3
Ivyleaf Morning Glory; plot 8, Lactofen 8 fl oz/a
  Effect on Ivyleaf Morning Glory 6 DAT: 61.7
  Effect on Ivyleaf Morning Glory 14 DAT: 48.3
  Effect on Ivyleaf Morning Glory 28 DAT: 20.0
Ivyleaf Morning Glory; plot 9, Lactofen 10.0 fl oz/a
  Effect on Ivyleaf Morning Glory 6 DAT: 71.7
  Effect on Ivyleaf Morning Glory 14 DAT: 58.3
  Effect on Ivyleaf Morning Glory 28 DAT: 20.0
Ivyleaf Morning Glory; plot 10, Lactofen 12.5 fl oz/a
  Effect on Ivyleaf Morning Glory 6 DAT: 68.3
  Effect on Ivyleaf Morning Glory 14 DAT: 56.7
  Effect on Ivyleaf Morning Glory 28 DAT: 23.3
Soybeans
  Effect on Soybeans (phytotoxicity) 28 DAT: 0.0
Palmer Amaranth [1]; plot 3, Lactofen 12.5 fl oz/a
  Palmer Amaranth (% Control) 7 DAT: 66.0%
  Palmer Amaranth (% Control) 8/18 DAT: 97.7%
  Palmer Amaranth (% Control) 14/24 DAT: 97.7%
  Palmer Amaranth (% Control) 28/38 DAT: 99.0%

Reference: patent publication US20140135220A1, “Methods for post emergent weed control with Pyroxasulfone and Lactofen” (Valent U.S.A., Corporation, priority 2012, published 2014)
